Marks after values point to notes of the source that are not given here.
Key:
Type in all cases: in vivo
[1] = test system: Puccinia recondite f. sp. tritici (the causal agent of wheat leaf rust); test: Test A: wheat leaf rust, preventive spray on wheat seedlings, visual disease rating; conditions: wheat leaf rust, preventive spray on wheat seedlings
Excerpt: (§1) General protocol for preparing test suspensions for Tests A-D: the test compounds were first dissolved in acetone in an amount equal to 3% of the final volume and then suspended at the desired concentration (in ppm) in acetone and purified water (50/50 mix by volume) containing 250 ppm of the surfactant Trem® 014 (polyhydric alcohol esters). The resulting test suspensions were then used in Tests A-D. Spraying a 200 ppm test suspension to the point of run-off on the test plants was the equivalent of a rate of 800 g/ha.
The test suspension was sprayed to the point of run-off on wheat seedlings. The following day the seedlings were inoculated with a spore suspension of Puccinia recondite f. sp. tritici (the causal agent of wheat leaf rust) and incubated in a saturated atmosphere at 20° C. for 24 h, and then moved to a growth chamber at 20° C. for 7 days, after which time visual disease ratings were made.
(§2) Results for Tests A-E are given in Table A. In the Table, a rating of 100 indicates 100% disease control and a rating of 0 indicates no disease control (relative to the controls). A dash (—) indicates no test results. An asterisk “*” next to the rating value indicates a 40 ppm test suspension was used.

[2] = test system: Botrytis cinerea (the causal agent of tomato Botrytis); test: Test C: tomato Botrytis, preventive spray on tomato seedlings, visual disease rating; conditions: tomato Botrytis, preventive spray on tomato seedlings
Excerpt: as §1
(§3) The test suspension was sprayed to the point of run-off on tomato seedlings. The following day the seedlings were inoculated with a spore suspension of Botrytis cinerea (the causal agent of tomato Botrytis) and incubated in a saturated atmosphere at 20° C. for 48 h, and then moved to a growth chamber at 24° C. for 3 days, after which time visual disease ratings were made.
as §2

[3] = test system: Septoria tritici (the causal agent of wheat leaf blotch); test: Test B: wheat leaf blotch, preventive spray on wheat seedlings, visual disease rating; conditions: wheat leaf blotch, preventive spray on wheat seedlings
Excerpt: as §1
as §3, with “wheat” for “tomato”, “Septoria tritici” for “Botrytis cinerea”, “wheat leaf blotch)” for “tomato Botrytis)”, “24°” for “20°”, “20°” for “24°”, “19” for “3”
as §2

[4] = test system: Blumeria graminis f. sp. tritici (also known as Erysiphe graminis f. sp. tritici, the causal agent of wheat powdery mildew); test: Test D: wheat powdery mildew, preventive spray on wheat seedlings, visual disease rating; conditions: wheat powdery mildew, preventive spray on wheat seedlings
Excerpt: as §1
The test suspension was sprayed to the point of run-off on wheat seedlings. The following day the seedlings were inoculated with a spore dust of Blumeria graminis f. sp. tritici, (also known as Erysiphe graminis f. sp. tritici, the causal agent of wheat powdery mildew) and incubated in a growth chamber at 20° C. for 8 days, after which time visual disease ratings were made.
as §2

[5] = asterisk: 40 ppm test suspension
[6] = no asterisk (standard test suspension concentration, not 40 ppm)

SMILES	Test A rating (100 = 100% disease control, 0 = no disease control relative to the controls) [1, 5]	Test C rating (100 = 100% disease control, 0 = no disease control relative to the controls) [2, 5]	Test B rating (100 = 100% disease control, 0 = no disease control relative to the controls) [3, 5]	Test D rating (100 = 100% disease control, 0 = no disease control relative to the controls) [4, 5]	Test A rating (100 = 100% disease control, 0 = no disease control relative to the controls) [1, 6]	Test C rating (100 = 100% disease control, 0 = no disease control relative to the controls) [2, 6]	Test B rating (100 = 100% disease control, 0 = no disease control relative to the controls) [3, 6]	Test D rating (100 = 100% disease control, 0 = no disease control relative to the controls) [4, 6]
COc1ccc(C(O)c2c(C)nc(Cl)n2-c2c(F)cccc2Br)c(F)c1 (stereo not shown) [compound 211]	100* %	100* %	100* %	98* %				
Cc1nc(Cl)c(C(O)c2ccc(F)cc2F)n1-c1c(F)cc(Cl)cc1F (stereo not shown) [compound 127]	100* %	73* %	100* %	0* %				
Cc1ncc(C(O)c2ccc(F)cc2Cl)n1-c1c(F)cc(F)cc1Cl (stereo not shown) [compound 370]					100%	100%	100%	0%
COc1cc(F)c(-n2c(C)nc(Cl)c2C(O)c2ccc(F)cc2C)c(F)c1 (stereo not shown) [compound 183]	86* %	8* %	100* %	0* %				
Cc1nc(Cl)c(C(O)c2ccc(F)cc2F)n1-c1c(F)cccc1F (stereo not shown) [compound 131]	100* %	99* %	100* %	99* %				
OC(c1ccc(F)cc1F)c1c(Cl)ncn1-c1c(F)cc(F)cc1Cl (stereo not shown) [compound 118]	100* %	91* %	100* %					48%
Cc1nc(Cl)c(C(O)c2c(F)cccc2F)n1-c1c(F)cccc1F (stereo not shown) [compound 105]	99* %	85* %	100* %	64* %				
OC(c1ccc(F)cc1F)c1c(Br)nc(Br)n1-c1c(F)cc(F)cc1Cl (stereo not shown) [compound 107]					100%	100%	100%	94%
COc1cc(F)c(C(O)c2c(Br)nc(Br)n2-c2ccc(F)cc2Cl)c(F)c1 (racemic) [compound 235]	100* %	100* %	100* %	99* %				
Cc1ncc(C(O)c2ccc(Cl)cc2)n1-c1ccc(F)cc1Cl (stereo not shown) [compound 57]					96%	34%	100%	0%

From patent publication US20130143929A1, “FUNGICIDAL IMIDAZOLES” (EI DU PONT DE NEMOURS AND COMPANY, priority 2010, published 2013)
